Results on four molecules are retold here after patent US20240197888A1, “SOS1 PROTEIN DEGRADERS, PHARMACEUTICAL COMPOSITIONS THEREOF, AND THEIR THERAPEUTIC APPLICATIONS” (BioTheryX, Inc., priority 2021, published 2024).

Holding throughout (assay type): cell-based
The target of one experiment is T1, SOS1 (Homo sapiens, UniProt Q07889).
T1 construct: Whole cell extracts were prepared using an immunoprecipitation (IP) lysis buffer; endogenous in cells; host or cells: MV-4-11
T1 sequence (Q07889 1-1333): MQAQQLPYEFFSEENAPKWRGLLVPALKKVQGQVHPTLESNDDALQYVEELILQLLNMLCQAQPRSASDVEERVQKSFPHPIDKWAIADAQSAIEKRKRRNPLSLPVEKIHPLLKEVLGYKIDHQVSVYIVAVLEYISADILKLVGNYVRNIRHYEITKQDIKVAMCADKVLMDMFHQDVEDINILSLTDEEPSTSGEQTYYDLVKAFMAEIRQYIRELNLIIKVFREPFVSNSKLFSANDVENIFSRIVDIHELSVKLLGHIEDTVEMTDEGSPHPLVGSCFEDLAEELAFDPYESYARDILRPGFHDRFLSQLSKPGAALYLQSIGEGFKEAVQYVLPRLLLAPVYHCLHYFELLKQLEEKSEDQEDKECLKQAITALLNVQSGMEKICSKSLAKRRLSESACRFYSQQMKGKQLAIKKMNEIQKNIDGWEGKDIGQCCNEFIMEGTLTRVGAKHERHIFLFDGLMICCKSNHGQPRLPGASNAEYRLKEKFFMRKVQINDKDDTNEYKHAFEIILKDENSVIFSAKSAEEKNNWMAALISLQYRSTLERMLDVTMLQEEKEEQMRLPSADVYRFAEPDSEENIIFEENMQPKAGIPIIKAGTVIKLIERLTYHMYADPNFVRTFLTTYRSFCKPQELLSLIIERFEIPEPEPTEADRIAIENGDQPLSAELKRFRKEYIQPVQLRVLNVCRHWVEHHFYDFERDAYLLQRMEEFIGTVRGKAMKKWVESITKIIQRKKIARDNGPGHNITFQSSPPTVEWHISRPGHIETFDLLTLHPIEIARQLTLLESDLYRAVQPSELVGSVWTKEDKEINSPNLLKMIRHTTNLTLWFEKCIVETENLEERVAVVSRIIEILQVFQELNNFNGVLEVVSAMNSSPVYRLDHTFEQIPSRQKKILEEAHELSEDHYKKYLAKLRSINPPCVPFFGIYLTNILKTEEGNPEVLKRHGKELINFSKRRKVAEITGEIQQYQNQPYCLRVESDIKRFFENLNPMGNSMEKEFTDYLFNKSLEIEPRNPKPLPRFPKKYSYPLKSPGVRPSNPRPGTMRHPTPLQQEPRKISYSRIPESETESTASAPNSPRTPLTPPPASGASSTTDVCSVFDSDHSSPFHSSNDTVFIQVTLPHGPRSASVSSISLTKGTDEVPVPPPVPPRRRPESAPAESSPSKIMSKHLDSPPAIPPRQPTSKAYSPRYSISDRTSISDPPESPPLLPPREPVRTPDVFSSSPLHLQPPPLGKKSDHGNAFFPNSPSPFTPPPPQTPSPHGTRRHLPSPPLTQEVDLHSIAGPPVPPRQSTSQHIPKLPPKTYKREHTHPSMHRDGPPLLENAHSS
Description: Protein degradation assay (western blot) in MV-4-11 cells. The settings on record: 6 h; for Degradation 3 μM (SOS1 protein, % degradation relative to DMSO control): compound at 3 μM; for Degradation 10 μM (SOS1 protein, % degradation relative to DMSO control): compound at 10 μM. The protocol: MV-4-11 cells were grown in RPMI 1640 media supplemented with 10% fetal bovine serum, streptomycin, and penicillin. The cells were plated in 24-well plates in the growth media. The cells were then treated with a compound at indicated concentrations for 6 h. Whole cell extracts were prepared using an immunoprecipitation (IP) lysis buffer. Briefly, the cells were washed once in PBS, and the cell pellets were resuspended in the IP lysis buffer and incubated for 15 min on ice. Cell debris was removed by centrifugation and the cleared whole cell lysates were transferred to new tubes for further analysis.
For a western blot analysis, the whole cell protein extracts were separated on 4-12% SDS-polyacrylamide gels, transferred to nitrocellulose, and probed with primary antibodies. The nitrocellulose was subsequently washed and probed with IRDYE® secondary antibodies. The signals were detected using an ODYSSEY® Imaging System. The antibodies used in the assay included anti-SOS1; anti-KRAS; β-actin mouse monoclonal antibody; IRDYE® 680RD goat anti-rabbit antibody; and IRDYE® 800CW goat anti-mouse antibody.
[…] The % degradation values relative to the DMSO control are reported as “A,” “B,” “C,” or “D;” where “A” represents a percentage degradation value of no less than 50%; “B” represents a percentage degradation value of less than 50% and no less than 25%; “C” represents a percentage degradation value of less than 25% and no less than 10%; and “D” represents a percentage degradation value of less than 10%.
(A western blot detects proteins with antibodies after separation by electrophoresis.)

The test system of another experiment is Lovo (G13D) cells. As to the kind of experiment: Cell viability assay (CELLTITER-GLO), Lovo cells. The settings on record: Homo sapiens, 72 h, Inhibition of cancerous cells, 3 days incubation, luminescence. The method, then:
(§1) AsPC-1, H358, and SW48 cells were cultured in RPMI 1640 media supplemented with 10% fetal bovine serum, streptomycin, and penicillin. Lovo and SW480 cells were cultured in DMEM media supplemented with 10% fetal bovine serum, streptomycin, and penicillin. The cell lines were plated in their respective medium supplemented with 2.5% fetal bovine serum, streptomycin, and penicillin. All cell lines were plated in white walled 96-well plates at 2,000 cells/well or 384-well plates at 500 cells/well, except Lovo, which were plated at 4,000 or 1,000 cells/well, respectively. The cells were incubated in DMSO (control) or a compound for 3 days at 37° C. under 5% CO2. A CELLTITER-GLO® reagent ([…] was then added to each well. After a 10 min incubation with shaking, luminescence was measured using an ENVISION® multimode plate reader. IC50 values are summarized in Table 1.
In general terms: In ATP-based viability assays light output follows the ATP content of the culture.

The subject of the next experiment is SW480 (G12V) cells. Description: Cell viability assay (CELLTITER-GLO), SW480 cells. The following applies: Homo sapiens, 72 h, Inhibition of cancerous cells, 3 days incubation, luminescence. The protocol: as §1
Another experiment deals with SW48 (wt) cells. As to the kind of experiment: Cell viability assay (CELLTITER-GLO), SW48 cells. The following applies: Homo sapiens, 72 h, Inhibition of cancerous cells, 3 days incubation, luminescence. The protocol:
as §1

For the next experiment, the system named is H358 (G12C) cells. Description: Cell viability assay (CELLTITER-GLO), H358 cells. The settings on record: Homo sapiens, NCI-H358, 72 h, Inhibition of cancerous cells, 3 days incubation, luminescence. The method, then: as §1
The test system of another experiment is AsPC-1 (G12D) cells. As to the kind of experiment: Cell viability assay (CELLTITER-GLO), AsPC-1 cells. The settings on record: Homo sapiens, ASPC1, 72 h, Inhibition of cancerous cells, 3 days incubation, luminescence. The method, then:
as §1

For the molecule `CNCc1ccccc1-c1csc([C@@H](C)Nc2nc(CCCCCCCCN3CCCCC3)nc3cc(OC)c(OC)cc23)c1` [Compound C1, (R)-6,7-Dimethoxy-N-(1-(4-(2-((methylamino)methyl)phenyl)thiophen-2-yl)ethyl)-2-(8-(piperidin-1-yl)octyl)quinazolin-4-amine], at SOS1, the “Degradation 3 μM (SOS1 protein, % degradation relative to DMSO control)” value was “D (a percentage degradation value of less than 10%)” and the “Degradation 10 μM (SOS1 protein, % degradation relative to DMSO control)” value was “D (a percentage degradation value of less than 10%)”.

As usually defined, the IC50 is the point on the concentration scale where inhibition reaches its midpoint. On to `COc1cc2c(N[C@H](C)c3cccc(Br)c3)nc(C)nc2cc1OCCCCCCCN1CCCCC1` [Compound A1, (R)—N-(1-(3-bromophenyl)ethyl)-6-methoxy-2-methyl-7-((7-(piperidin-1-yl)heptyl)oxy)quinazolin-4-amine], for which the IC50 in the experiment with Lovo (G13D) cells worked out at 0.63 µM; in the experiment on SW480 (G12V) cells it was 0.52 µM; with SW48 (wt) cells, 0.68 µM; in the experiment with H358 (G12C) cells it was 1.1 µM. The “Degradation 3 μM (SOS1 protein, % degradation relative to DMSO control)” value on SOS1 is “B (a percentage degradation value of less than 50% and no less than 25%)”. Moreover, the “Degradation 10 μM (SOS1 protein, % degradation relative to DMSO control)” value on SOS1 is “A (a percentage degradation value of no less than 50%)”.

For `COc1cc2c(N[C@H](C)c3cccc(Br)c3)nc(C)nc2cc1OCCCCCCCNCCC(F)(F)F` [Compound A70, (R)—N-(1-(3-Bromophenyl)ethyl)-6-methoxy-2-methyl-7-((7-((3,3,3-trifluoro-propyl)amino)heptyl)oxy)quinazolin-4-amine], the half-inhibitory concentration (IC50) amounted to 0.5 µM with Lovo (G13D) cells; 0.93 µM with SW480 (G12V) cells; 0.98 µM in the experiment with SW48 (wt) cells; 1.4 µM in the experiment on H358 (G12C) cells; 1.3 µM with AsPC-1 (G12D) cells.

Turning to `CNCc1ccccc1-c1csc([C@@H](C)Nc2nc(C)nc3cc(OCCCCCCCN4CCN(C(C)=O)CC4)c(OC)cc23)c1` [Compound A64, (R)-1-(4-(7-((6-Methoxy-2-methyl-4-((1-(4-(2-((methylamino)methyl)phenyl)-thiophen-2-yl)ethyl)amino)quinazolin-7-yl)oxy)heptyl)piperazin-1-yl)ethan-1-one], the IC50 turned out to be 0.45 µM in the experiment with Lovo (G13D) cells; 0.46 µM in the experiment on SW480 (G12V) cells; 0.68 µM in the experiment with SW48 (wt) cells; 1.4 µM with H358 (G12C) cells; 1.1 µM with AsPC-1 (G12D) cells.
